{"source": "patent US20040077591A1", "about": "“Histone deacetylase inhibitors for the treatment of multiple sclerosis, amyotrophic lateral sclerosis and Alzheimer's Disease” (The Brigham and Women's Hospital, Inc., priority 2002, published 2004)", "origin": "cited, not measured here", "key": {"SMA lymphoid cell lines": {"system": "SMA lymphoid cell lines", "conditions": "cited from earlier work"}, "SMA-like mice": {"system": "SMA-like mice", "conditions": "cited from earlier work"}}, "data": [{"smiles": "CCCC(=O)[O-].[Na+]", "note": "[sodium butyrate]", "values": [{"measurement": "amount of exon 7-containing survival motor neuron (SMN) protein", "setting": "SMA lymphoid cell lines", "result": "effective at increasing"}, {"measurement": "expression of SMN protein in spinal cord motor neurons", "setting": "SMA-like mice; SMA-like mice", "result": "increased expression of SMN protein"}, {"measurement": "symptoms", "setting": "SMA-like mice; SMA-like mice", "result": "improved symptoms"}, {"measurement": "birth rate of severe types of SMA-like mice", "setting": "SMA-like mice; heterozygous knock-out transgenic SMA-like mice bred", "result": "decreased the birth rate"}]}]}
